Experimental data published in US6525001B1, “Substituted pyrimidine and pyridine herbicides” (Mid-American Commercialization Corporation, priority 1997, dated 2003).

Tests used:
Type in all cases: in vivo
[1] = test system: bedstraw (Galium aparine); experiment: Test B pre-/postemergence; set-up: key: 0 is no effect; 10 is complete control; settings: for Bedstraw plant response rating: Preemergence
Text: (§1) Seeds of bedstraw (Galium aparine), blackgrass (Alopecurus myosuroides), broadleaf signalgrass (Brachiaria decumbens), cocklebur (Xanthium strumarium), corn (Zea mays), crabgrass (Digitaria sanguinalis), giant foxtail (Setaria faberii), lambsquarters (Chenopodium album), momingglory (Ipomoea hederacea), pigweed (Amaranthus retroflexus), rape (Brassica napus), soybean (Glycine max), sugar beet (Beta vulgaris), velvetleaf (Abutilon theophrasti), wheat (Triticum aestivum), wild oat (Avena fatua) and purple nutsedge (Cyperus rotundus) tubers were planted and treated preemergence with test chemicals formulated in a non-phytotoxic solvent mixture which included a surfactant.
(§2) At the same time, these crop and weed species were also treated with postemergence applications of test chemicals formulated in the same manner. Plants ranged in height from 2 to 18 cm (1- to 4-leaf stage) for postemergence treatments. Plant species in the flood test consisted of rice (Oryza sativa), smallflower flatsedge (Cyperus difformis), duck salad (Heteranthera limosa) and bamyardgrass (Echinochloa crus-galli) grown to the 2-leaf stage for testing. Treated plants and controls were maintained in a greenhouse for twelve to sixteen days, after which all species were compared to controls and visually evaluated. Plant response ratings, summarized in Table B, are based on a scale of 0 to 10 where 0 is no effect and 10 is complete control. A dash (−) response means no test result.

[2] = test system: blackgrass (Alopecurus myosuroides); experiment: Test B pre-/postemergence; set-up: key: 0 is no effect; 10 is complete control; settings: for Blackgrass plant response rating: Preemergence
Text: as §1, §2

[3] = test system: broadleaf signalgrass (Brachiaria decumbens); experiment: Test B pre-/postemergence; set-up: key: 0 is no effect; 10 is complete control; settings: for B. signalgrass plant response rating: Preemergence
Text: as §1, §2

[4] = test system: cocklebur (Xanthium strumarium); experiment: Test B pre-/postemergence; set-up: key: 0 is no effect; 10 is complete control; settings: for Plant response rating, Cocklebur: Postemergence; for Cocklebur plant response rating: Preemergence
Text: as §1, §2

corn (Zea mays) = experiment: Test B pre-/postemergence; set-up: key: 0 is no effect; 10 is complete control; settings: for Corn plant response rating: Preemergence
Text: as §1, §2

[5] = test system: crabgrass (Digitaria sanguinalis); experiment: Test B pre-/postemergence; set-up: key: 0 is no effect; 10 is complete control; settings: for Crabgrass plant response rating: Preemergence
Text: as §1, §2

[6] = test system: giant foxtail (Setaria faberii); experiment: Test B pre-/postemergence; set-up: key: 0 is no effect; 10 is complete control
Text: as §1, §2

[7] = test system: momingglory (Ipomoea hederacea); experiment: Test B pre-/postemergence; set-up: key: 0 is no effect; 10 is complete control
Text: as §1, §2

[8] = test system: pigweed (Amaranthus retroflexus); experiment: Test B pre-/postemergence; set-up: key: 0 is no effect; 10 is complete control
Text: as §1, §2

[9] = test system: purple nutsedge (Cyperus rotundus); experiment: Test B pre-/postemergence; set-up: key: 0 is no effect; 10 is complete control
Text: as §1, §2

rape (Brassica napus) = experiment: Test B pre-/postemergence; set-up: key: 0 is no effect; 10 is complete control
Text: as §1, §2

soybean (Glycine max) = experiment: Test B pre-/postemergence; set-up: key: 0 is no effect; 10 is complete control
Text: as §1, §2

[10] = test system: sugar beet (Beta vulgaris); experiment: Test B pre-/postemergence; set-up: key: 0 is no effect; 10 is complete control
Text: as §1, §2

[11] = test system: velvetleaf (Abutilon theophrasti); experiment: Test B pre-/postemergence; set-up: key: 0 is no effect; 10 is complete control
Text: as §1, §2

[12] = test system: wheat (Triticum aestivum); experiment: Test B pre-/postemergence; set-up: key: 0 is no effect; 10 is complete control
Text: as §1, §2

wild oat (Avena fatua) = experiment: Test B pre-/postemergence; set-up: key: 0 is no effect; 10 is complete control
Text: as §1, §2

[13] = test system: bamyardgrass (Echinochloa crus-galli); experiment: Test B flood test
How it was run: (§3)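 Read-out is a visual response score from 0 (no effect) to 10 (complete control), assigned by comparison with untreated controls. Treatment was applied at the 2-leaf stage, and plants stayed in the greenhouse for twelve to sixteen days before scoring.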

[14] = test system: duck salad (Heteranthera limosa); experiment: Test B flood test
How it was run: as §3

rice (Oryza sativa) = experiment: Test B flood test
How it was run: as §3

[15] = test system: smallflower flatsedge (Cyperus difformis); experiment: Test B flood test
How it was run: as §3

[16] = Rate 250 g/ha, Postemergence (so in the source)
[17] = Rate 62 g/ha, Postemergence (flood test)
[18] = Rate 125 g/ha, Postemergence, flood test
[19] = Rate 250 g/ha, Postemergence (flood test species)
[20] = Rate 125 g/ha, Postemergence section (flood test species)

## Cc1cnc(-c2ccc(Cl)cc2)nc1Cc1cccc(C(F)(F)F)c1 [Compound 28]
[1]; Rate 62 g/ha, Postemergence
  Plant response rating, Bedstraw: 2
[1]; Rate 62 g/ha
  Bedstraw plant response rating: 2
[1]; Rate 125 g/ha, Postemergence
  Plant response rating, Bedstraw: 8
[1]; Rate 125 g/ha
  Bedstraw plant response rating: 4
[1]; Rate 250 g/ha, Postemergence
  Plant response rating, Bedstraw: 8
[1]; [16]
  Plant response rating, Bedstraw: 8
[2]; Rate 62 g/ha, Postemergence
  Plant response rating, Blackgrass: 4
[2]; Rate 62 g/ha
  Blackgrass plant response rating: 2
[2]; Rate 125 g/ha, Postemergence
  Plant response rating, Blackgrass: 5
[2]; Rate 125 g/ha
  Blackgrass plant response rating: 5
[2]; Rate 250 g/ha, Postemergence
  Plant response rating, Blackgrass: 8
[2]; [16]
  Plant response rating, Blackgrass: 6
[3]; Rate 62 g/ha, Postemergence
  Plant response rating, B. signalgrass: 4
[3]; Rate 62 g/ha
  B. signalgrass plant response rating: 2
[3]; Rate 125 g/ha, Postemergence
  Plant response rating, B. signalgrass: 5
[3]; Rate 125 g/ha
  B. signalgrass plant response rating: 5
[3]; Rate 250 g/ha, Postemergence
  Plant response rating, B. signalgrass: 9
[3]; Rate 250 g/ha, Postemergence as printed in head r139 (second section for compounds 26-50)
  Plant response rating, B. signalgrass: 9
[4]; Rate 62 g/ha
  Plant response rating, Cocklebur: 7
  Cocklebur plant response rating: 0
[4]; Rate 125 g/ha
  Plant response rating, Cocklebur: 8
  Cocklebur plant response rating: 0
[4]; Rate 250 g/ha
  Plant response rating, Cocklebur: 8
Corn (Zea mays); Rate 62 g/ha, Postemergence
  Plant response rating, Corn: 2
Corn (Zea mays); Rate 62 g/ha
  Corn plant response rating: 0
Corn (Zea mays); Rate 125 g/ha, Postemergence
  Plant response rating, Corn: 3
Corn (Zea mays); Rate 125 g/ha
  Corn plant response rating: 0
Corn (Zea mays); Rate 250 g/ha, Postemergence
  Plant response rating, Corn: 4
Corn (Zea mays); [16]
  Plant response rating, Corn: 1
[5]; Rate 62 g/ha, Postemergence
  Plant response rating, Crabgrass: 3
[5]; Rate 62 g/ha
  Crabgrass plant response rating: 2
[5]; Rate 125 g/ha, Postemergence
  Plant response rating, Crabgrass: 9
[5]; Rate 125 g/ha
  Crabgrass plant response rating: 4
[5]; Rate 250 g/ha, Postemergence
  Plant response rating, Crabgrass: 10
[5]; [16]
  Plant response rating, Crabgrass: 10
[6]; Rate 62 g/ha, Postemergence
  Plant response rating, Giant foxtail: 3
[6]; Rate 62 g/ha, Preemergence
  Giant foxtail plant response rating: 4
[6]; Rate 125 g/ha, Postemergence
  Giant foxtail plant response rating: 4
[6]; Rate 125 g/ha, Preemergence
  Giant foxtail plant response rating: 9
[6]; Rate 250 g/ha, Postemergence
  Plant response rating, Giant foxtail: 9
[6]; [16]
  Plant response rating, Giant foxtail: 10
[7]; Rate 62 g/ha, Postemergence
  Plant response rating, Morningglory: 3
[7]; Rate 62 g/ha, Preemergence
  Morningglory plant response rating: 2
[7]; Rate 125 g/ha, Postemergence
  Morningglory plant response rating: 3
[7]; Rate 125 g/ha, Preemergence
  Morningglory plant response rating: 2
[7]; Rate 250 g/ha, Postemergence
  Plant response rating, Morningglory: 3
[7]; [16]
  Plant response rating, Morningglory: 3
[8]; Rate 62 g/ha, Postemergence
  Plant response rating, Redroot pigweed: 8
[8]; Rate 62 g/ha, Preemergence
  Redroot pigweed plant response rating: 5
[8]; Rate 125 g/ha, Postemergence
  Redroot pigweed plant response rating: 9
[8]; Rate 125 g/ha, Preemergence
  Redroot pigweed plant response rating: 6
[8]; Rate 250 g/ha, Postemergence
  Plant response rating, Redroot pigweed: 10
[8]; [16]
  Plant response rating, Redroot pigweed: 7
[9]; Rate 62 g/ha, Postemergence
  Plant response rating, Nutsedge: 0
[9]; Rate 62 g/ha, Preemergence
  Nutsedge plant response rating: 0
[9]; Rate 125 g/ha, Postemergence
  Nutsedge plant response rating: 3
[9]; Rate 125 g/ha, Preemergence
  Nutsedge plant response rating: 0
[9]; [16]
  Plant response rating, Nutsedge: 0
Rape (Brassica napus); Rate 62 g/ha, Postemergence
  Plant response rating, Rape: 9
Rape (Brassica napus); Rate 62 g/ha, Preemergence
  Rape plant response rating: 1
Rape (Brassica napus); Rate 125 g/ha, Postemergence
  Rape plant response rating: 9
Rape (Brassica napus); Rate 125 g/ha, Preemergence
  Rape plant response rating: 2
Rape (Brassica napus); Rate 250 g/ha, Postemergence
  Plant response rating, Rape: 10
Rape (Brassica napus); [16]
  Plant response rating, Rape: 4
Soybean (Glycine max); Rate 62 g/ha, Postemergence
  Plant response rating, Soybean: 4
Soybean (Glycine max); Rate 62 g/ha, Preemergence
  Soybean plant response rating: 0
Soybean (Glycine max); Rate 125 g/ha, Postemergence
  Soybean plant response rating: 7
Soybean (Glycine max); Rate 125 g/ha, Preemergence
  Plant response rating, Soybean: 0
Soybean (Glycine max); Rate 250 g/ha, Postemergence
  Plant response rating, Soybean: 7
Soybean (Glycine max); [16]
  Plant response rating, Soybean: 1
[10]; Rate 62 g/ha, Postemergence
  Plant response rating, Sugarbeets: 9
[10]; Rate 62 g/ha, Preemergence
  Sugarbeets plant response rating: 0
[10]; Rate 125 g/ha, Postemergence
  Sugarbeets plant response rating: 9
[10]; Rate 125 g/ha, Preemergence
  Plant response rating, Sugarbeets: 2
[10]; Rate 250 g/ha, Postemergence
  Plant response rating, Sugarbeets: 10
[10]; [16]
  Plant response rating, Sugarbeets: 3
[11]; Rate 62 g/ha, Postemergence
  Plant response rating, Velvetleaf: 3
[11]; Rate 62 g/ha, Preemergence
  Velvetleaf plant response rating: 1
[11]; Rate 125 g/ha, Postemergence
  Velvetleaf plant response rating: 4
[11]; Rate 125 g/ha, Preemergence
  Plant response rating, Velvetleaf: 1
[11]; Rate 250 g/ha, Postemergence
  Plant response rating, Velvetleaf: 8
[11]; [16]
  Plant response rating, Velvetleaf: 2
[12]; Rate 62 g/ha, Postemergence
  Wheat plant response rating: 3
[12]; Rate 62 g/ha, Preemergence
  Wheat plant response rating: 0
[12]; Rate 125 g/ha, Postemergence
  Wheat plant response rating: 4
[12]; Rate 125 g/ha, Preemergence
  Plant response rating, Wheat: 0
[12]; Rate 250 g/ha, Postemergence
  Plant response rating, Wheat: 5
[12]; [16]
  Plant response rating, Wheat: 0
Wild oat (Avena fatua); Rate 62 g/ha, Postemergence
  Wild oats plant response rating: 4
Wild oat (Avena fatua); Rate 62 g/ha, Preemergence
  Wild oats plant response rating: 3
Wild oat (Avena fatua); Rate 125 g/ha, Postemergence
  Wild oats plant response rating: 5
Wild oat (Avena fatua); Rate 125 g/ha, Preemergence
  Plant response rating, Wild oats: 3
Wild oat (Avena fatua); Rate 250 g/ha, Postemergence
  Plant response rating, Wild oats: 6
Wild oat (Avena fatua); [16]
  Plant response rating, Wild oats: 4
[13]; [17]
  Plant response rating, Barnyardgrass: 3
[13]; [18]
  Plant response rating, Barnyardgrass: 4
[13]; [19]
  Plant response rating, Barnyardgrass: 5
[14]; [17]
  Plant response rating, Ducksalad: 2
[14]; [18]
  Plant response rating, Ducksalad: 3
[14]; [19]
  Plant response rating, Ducksalad: 6
Rice (Oryza sativa); [17]
  Plant response rating, Rice: 2
Rice (Oryza sativa); [20]
  Rice plant response rating: 2
Rice (Oryza sativa); [19]
  Plant response rating, Rice: 3
[15]; [17]
  Plant response rating, S. Flatsedge: 5
[15]; [20]
  S. Flatsedge plant response rating: 8
[15]; [19]
  Plant response rating, S. Flatsedge: 8
